Measurements: PubChem BioAssay (NCI)
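Step 1: Grow cells in 96-well plates. Step 2: Expose to compound for 48 hours at 5 concentrations. Step 3: Interpolate endpoints linearly; if unreached, use highest concentration. GI50 = concentration required for 50% inhibition of growth. The concentration for full growth arrest is given as TGI.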

Tests used:
Experiment in all cases: NCI-60 cell line screen, 48 h
BT-549 breast = test system: BT-549 breast
CAKI-1 renal = test system: CAKI-1 renal
HS 578T breast = test system: HS 578T breast
M14 melanoma = test system: M14 melanoma
A549 NSCLC = test system: A549 NSCLC
SK-MEL-5 melanoma = test system: SK-MEL-5 melanoma
MDA-MB-468 breast = test system: MDA-MB-468 breast
NCI-H226 lung = test system: NCI-H226 lung
ACHN renal = test system: ACHN renal
MALME-3M melanoma = test system: MALME-3M melanoma
HT29 colon = test system: HT29 colon
NCI-H522 lung = test system: NCI-H522 lung
SK-MEL-28 melanoma = test system: SK-MEL-28 melanoma
MOLT-4 leukemia = test system: MOLT-4 leukemia
T-47D breast = test system: T-47D breast
HCT-15 colon = test system: HCT-15 colon
SR leukemia = test system: SR leukemia
TK-10 renal = test system: TK-10 renal
KM12 colon = test system: KM12 colon
OVCAR-3 ovarian = test system: OVCAR-3 ovarian
SK-OV-3 ovarian = test system: SK-OV-3 ovarian
RPMI-8226 leukemia = test system: RPMI-8226 leukemia
OVCAR-4 ovarian = test system: OVCAR-4 ovarian
NCI-H23 lung = test system: NCI-H23 lung
IGROV1 ovarian = test system: IGROV1 ovarian
HCT-116 colon = test system: HCT-116 colon
HL-60(TB) leukemia = test system: HL-60(TB) leukemia
OVCAR-5 ovarian = test system: OVCAR-5 ovarian
HCC-2998 colon = test system: HCC-2998 colon
786-0 renal = test system: 786-0 renal
SN12C renal = test system: SN12C renal
SF-539 CNS = test system: SF-539 CNS
U251 CNS = test system: U251 CNS
CCRF-CEM leukemia = test system: CCRF-CEM leukemia
NCI/ADR-RES ovarian = test system: NCI/ADR-RES ovarian
HOP-62 NSCLC = test system: HOP-62 NSCLC
PC-3 prostate = test system: PC-3 prostate
OVCAR-8 ovarian = test system: OVCAR-8 ovarian
A498 renal = test system: A498 renal
UACC-62 melanoma = test system: UACC-62 melanoma
MCF7 breast = test system: MCF7 breast
SF-268 CNS = test system: SF-268 CNS
NCI-H460 lung = test system: NCI-H460 lung
LOX IMVI melanoma = test system: LOX IMVI melanoma
SF-295 CNS = test system: SF-295 CNS
COLO 205 colon = test system: COLO 205 colon
RXF 393 renal = test system: RXF 393 renal
DU-145 prostate = test system: DU-145 prostate
SNB-19 CNS = test system: SNB-19 CNS
UACC-257 melanoma = test system: UACC-257 melanoma
MDA-MB-435 = test system: MDA-MB-435
K-562 leukemia = test system: K-562 leukemia
HOP-92 NSCLC = test system: HOP-92 NSCLC
EKVX NSCLC = test system: EKVX NSCLC
SW-620 colon = test system: SW-620 colon

Cc1[nH]nc2ccc3nc(-c4cn[nH]c4C(F)(F)F)c4c(c3c12)CCCC4
GI50 (BT-549 breast): 2100 nM
TGI (BT-549 breast): 5.19 µM
GI50 (CAKI-1 renal): 3.3 µM
TGI (CAKI-1 renal): 11.8 µM
GI50 (HS 578T breast): 2140 nM
TGI (HS 578T breast): 5.19 µM
GI50 (M14 melanoma): 2770 nM
TGI (M14 melanoma): 10.9 µM
GI50 (A549 NSCLC): 3.54 µM
TGI (A549 NSCLC): 13 µM
GI50 (SK-MEL-5 melanoma): 2940 nM
TGI (SK-MEL-5 melanoma): 9.26 µM
GI50 (MDA-MB-468 breast): 2460 nM
TGI (MDA-MB-468 breast): 8.78 µM
GI50 (NCI-H226 lung): 5.15 µM
TGI (NCI-H226 lung): 43.7 µM
GI50 (ACHN renal): 2260 nM
TGI (ACHN renal): 11.6 µM
GI50 (MALME-3M melanoma): 4.04 µM
TGI (MALME-3M melanoma): 13.6 µM
GI50 (HT29 colon): 3.9 µM
TGI (HT29 colon): 12.7 µM
GI50 (NCI-H522 lung): 1440 nM
TGI (NCI-H522 lung): 5.06 µM
GI50 (SK-MEL-28 melanoma): 3.79 µM
TGI (SK-MEL-28 melanoma): 14.2 µM
GI50 (MOLT-4 leukemia): 2160 nM
TGI (MOLT-4 leukemia): 5.89 µM
GI50 (T-47D breast): 2400 nM
TGI (T-47D breast): 12.1 µM
GI50 (HCT-15 colon): 2750 nM
TGI (HCT-15 colon): 9.34 µM
GI50 (SR leukemia): 1560 nM
TGI (SR leukemia): 4.13 µM
GI50 (TK-10 renal): 2290 nM
TGI (TK-10 renal): 11.7 µM
GI50 (KM12 colon): 2820 nM
TGI (KM12 colon): 13.3 µM
GI50 (OVCAR-3 ovarian): 4.15 µM
TGI (OVCAR-3 ovarian): 14.6 µM
GI50 (SK-OV-3 ovarian): 1780 nM
TGI (SK-OV-3 ovarian): 5.31 µM
GI50 (RPMI-8226 leukemia): 2490 nM
TGI (RPMI-8226 leukemia): 30.3 µM
GI50 (OVCAR-4 ovarian): 8.96 µM
TGI (OVCAR-4 ovarian): 21.2 µM
GI50 (NCI-H23 lung): 2950 nM
TGI (NCI-H23 lung): 11 µM
GI50 (IGROV1 ovarian): 2610 nM
TGI (IGROV1 ovarian): 7.43 µM
GI50 (HCT-116 colon): 2580 nM
TGI (HCT-116 colon): 10.3 µM
GI50 (HL-60(TB) leukemia): 2720 nM
TGI (HL-60(TB) leukemia): 6.92 µM
GI50 (OVCAR-5 ovarian): 3.15 µM
TGI (OVCAR-5 ovarian): 13.7 µM
GI50 (HCC-2998 colon): 3.52 µM
TGI (HCC-2998 colon): 12.6 µM
GI50 (786-0 renal): 2950 nM
TGI (786-0 renal): 12.5 µM
GI50 (SN12C renal): 3.31 µM
TGI (SN12C renal): 13.3 µM
GI50 (SF-539 CNS): 2030 nM
TGI (SF-539 CNS): 6.54 µM
GI50 (U251 CNS): 4.41 µM
TGI (U251 CNS): 17.6 µM
GI50 (CCRF-CEM leukemia): 3.49 µM
TGI (CCRF-CEM leukemia): 19.1 µM
GI50 (NCI/ADR-RES ovarian): 11.7 µM
TGI (NCI/ADR-RES ovarian): 30.1 µM
GI50 (HOP-62 NSCLC): 3.53 µM
TGI (HOP-62 NSCLC): 12.5 µM
GI50 (PC-3 prostate): 3.94 µM
TGI (PC-3 prostate): 17.1 µM
GI50 (OVCAR-8 ovarian): 4.44 µM
TGI (OVCAR-8 ovarian): 18.7 µM
GI50 (A498 renal): 2320 nM
TGI (A498 renal): 6.77 µM
GI50 (UACC-62 melanoma): 2090 nM
TGI (UACC-62 melanoma): 6.64 µM
GI50 (MCF7 breast): 4.03 µM
TGI (MCF7 breast): 16.8 µM
GI50 (SF-268 CNS): 2990 nM
TGI (SF-268 CNS): 13.5 µM
GI50 (NCI-H460 lung): 3 µM
TGI (NCI-H460 lung): 13.1 µM
GI50 (LOX IMVI melanoma): 3.55 µM
TGI (LOX IMVI melanoma): 13.1 µM
GI50 (SF-295 CNS): 3.34 µM
TGI (SF-295 CNS): 14 µM
GI50 (COLO 205 colon): 3.24 µM
TGI (COLO 205 colon): 10.9 µM
GI50 (RXF 393 renal): 1370 nM
TGI (RXF 393 renal): 4.39 µM
GI50 (DU-145 prostate): 3.99 µM
TGI (DU-145 prostate): 18.5 µM
GI50 (SNB-19 CNS): 5.14 µM
TGI (SNB-19 CNS): 17.9 µM
GI50 (UACC-257 melanoma): 8.47 µM
TGI (UACC-257 melanoma): 22 µM
GI50 (MDA-MB-435): 3.01 µM
TGI (MDA-MB-435): 11.2 µM
GI50 (K-562 leukemia): 3.5 µM
TGI (K-562 leukemia): 19.9 µM
GI50 (HOP-92 NSCLC): 2860 nM
TGI (HOP-92 NSCLC): 8.51 µM
GI50 (EKVX NSCLC): 2840 nM
TGI (EKVX NSCLC): 9.62 µM
GI50 (SW-620 colon): 2480 nM
TGI (SW-620 colon): 11.3 µM
